Source: patent US8741339B2, “Active targeting polymer micelle encapsulating drug, and pharmaceutical composition” (Nonocarrier Co., Ltd., priority 2008, dated 2014)
In brackets after ≈: the same amount, converted by molar mass.

Columns and labels:
Assay type in all cases: cell-based
[1] = system: human prostate cancer DU145 cell; assay: Cytotoxicity test 3 (WST method, 8 hours with sample liquid); conditions: DU-145, total cultivation 72 hours, as CPT concentration
[2] = system: human breast cancer MDA-MB-231 cell; assay: Cytotoxicity test 5 (WST method, 8 hours with sample liquid); conditions: MDA-MB-231, human breast cancer, total cultivation 72 hours, as CPT concentration
Method: The human breast cancer MDA-MB-231 cell, which had been suspended in 90 μIL of a medium, was seeded to a 96-well plate so that the cell would be contained at a concentration of about 5000 cells per well, and cultivated under an atmosphere of 37° C. and 5% CO2 overnight. The medium was formed of RPMI1640 (Gibco™, Invitrogen) and 10% Fetal Bovine Serum (FBS, biowest). Subsequently, each of sample liquids at various DTX concentrations obtained by diluting the micelle solution in Example 2 and the micelle solution in Comparative Example 1 with the medium was added to each well (10 μL per well), […] […] From each well, the absorbance (Abs450) of light at a wavelength of 450 nm was measured, and the cell growth rate (% cell growth) was calculated based on the below-indicated mathematical equation. It should be noted that “Abs450 value of control” in the mathematical equation means an absorbance obtained from a well in which the above-mentioned cultivation has been performed using a culture liquid free of DTX. % cell growth=[(Abs450 value after addition of sample liquid)−(Abs450 value of blank)]/[(Abs450 value of control)−(Abs450 value of blank)]×100 […]

[3] = system: human liver cancer HepG2 cell; assay: Cytotoxicity test 4 (WST method, 8 hours with sample liquid); conditions: total cultivation 72 hours, as CPT concentration

SMILES: CC[C@@]1(O)C(=O)OCc2c1cc1n(c2=O)Cc2cc3ccccc3nc2-1 [Solution, camptothecin]
- GI50 [1]: 0.01 µg/mL (≈ 0.0287 µM)
- GI50 [2]: 1 µg/mL (≈ 2.87 µM)
- GI50 [3]: 0.04 µg/mL (≈ 0.115 µM)
